Measured values reported in patent US20040102454A1, “Phenylahistin and the phenylahistin analogs, a new class of anti-tumor compounds” (priority 1998, published 2004).

Experiments:
Experiment in all cases: HCC panel assay, sulforhodamine B
Type in all cases: cell-based
St-4 = conditions: St-4, Stomach, (−)-PLH content 24.1%
Description: (§1) The antitumor activity of PLH was evaluated by the Human Cancer Cell Line Panel (HCC panel) assay, see Yamori T., Jap. J Cancer Chemother., (1997), 24, 129-35. This HCC panel consists of 38 tumor cell lines including 7 lung cancer, 6 stomach, 6 colon, 5 ovary, 6 central nerve system, 5 breast, 2 kidney and 1 melanoma cell lines. Each tumor cell was seeded in 96-well tissue culture plates and incubated overnight. Various concentrations (5 doses; final 10^−4, 10^−5, 10^−6, 10^−7 and 10^−8 M) of PLH were added, and the cells were incubated for 48 hours. […] All mice were obtained from Japan SLC (Shizuoka, Japan), P388 leukemia cells were obtained from Dainippon Pharmaceuticals Inc. (Osaka, Japan), Lewis Lung Carcinoma from Riken Cell Bank (Tsukuba, Japan), and Colon 26 cells from the National Cancer Center, Japan (Tokyo, Japan).

SF-268 = conditions: SF-268, CNS, (−)-PLH content 24.1%
Description: as §1

MKN7 = conditions: MKN7, Stomach, (−)-PLH content 24.1%
Description: as §1

MKN28 = conditions: MKN28, Stomach, (−)-PLH content 24.1%
Description: as §1

RXF-6311 = conditions: RXF-6311, Renal, (−)-PLH content 24.1%
Description: as §1

OVCAR-5 = conditions: OVCAR-5, Ovary, (−)-PLH content 24.1%
Description: as §1

HCT-15 = conditions: HCT-15, Colon, (−)-PLH content 24.1%
Description: as §1

MKN74 = conditions: MKN74, Stomach, (−)-PLH content 24.1%
Description: as §1

MCF-7 = conditions: MCF-7, Breast, (−)-PLH content 24.1%
Description: as §1

NCI-H226 = conditions: NCI-H226, Lung, (−)-PLH content 24.1%
Description: as §1

SK-OV-3 = conditions: SK-OV-3, Ovary, (−)-PLH content 24.1%
Description: as §1

MDA-MB-231 = conditions: MDA-MB-231, Breast, (−)-PLH content 24.1%
Description: as §1

HCC2998 = conditions: HCC2998, Colon, (−)-PLH content 24.1%
Description: as §1

NCI-H460 = conditions: NCI-H460, Lung, (−)-PLH content 24.1%
Description: as §1

MKN1 = conditions: MKN1, Stomach, (−)-PLH content 24.1%
Description: as §1

DMS273 = conditions: DMS273, Lung, (−)-PLH content 24.1%
Description: as §1

DMS114 = conditions: DMS114, Lung, (−)-PLH content 24.1%
Description: as §1

HCT-116 = conditions: HCT-116, Colon, (−)-PLH content 24.1%
Description: as §1

NCI-H23 = conditions: NCI-H23, Lung, (−)-PLH content 24.1%
Description: as §1

SNB-75 = conditions: SNB-75, CNS, (−)-PLH content 24.1%
Description: as §1

[1] = Homo sapiens, read-out: GL50 (the source's name)
[2] = Homo sapiens, read-out: LC50 (the source's name)

C=CC(C)(C)c1[nH]cnc1/C=C1\NC(=O)[C@H](Cc2ccccc2)NC1=O (racemic) [PLH, phenylahistin]
IC50 (St-4; [1]): 40 µM
CC50 (St-4; [2]): > 100 µM
TGI (St-4): >100 µM
IC50 (SF-268; [1]): 0.41 µM
CC50 (SF-268; [2]): > 100 µM
TGI (SF-268): >100 µM
IC50 (MKN7; Homo sapiens, MKN-7, read-out: GL50 (the source's name)): 0.39 µM
CC50 (MKN7; Homo sapiens, MKN-7, read-out: LC50 (the source's name)): > 100 µM
TGI (MKN7): >100 µM
IC50 (MKN28; Homo sapiens, MKN-28, read-out: GL50 (the source's name)): 0.42 µM
CC50 (MKN28; Homo sapiens, MKN-28, read-out: LC50 (the source's name)): > 100 µM
TGI (MKN28): >100 µM
IC50 (RXF-6311; [1]): 1.9 µM
CC50 (RXF-6311; [2]): > 100 µM
TGI (RXF-6311): >100 µM
IC50 (OVCAR-5; [1]): 1.2 µM
CC50 (OVCAR-5; [2]): > 100 µM
TGI (OVCAR-5): >100 µM
TGI (HCT-15): >100 µM
IC50 (HCT-15; [1]): 0.49 µM
CC50 (HCT-15; [2]): > 100 µM
IC50 (MKN74; Homo sapiens, MKN-74, read-out: GL50 (the source's name)): 0.48 µM
CC50 (MKN74; Homo sapiens, MKN-74, read-out: LC50 (the source's name)): > 100 µM
TGI (MKN74): >100 µM
IC50 (MCF-7; Homo sapiens, MCF7, read-out: GL50 (the source's name)): 0.47 µM
CC50 (MCF-7; Homo sapiens, MCF7, read-out: LC50 (the source's name)): > 100 µM
TGI (MCF-7): >100 µM
IC50 (NCI-H226; [1]): 0.41 µM
CC50 (NCI-H226; [2]): > 100 µM
TGI (NCI-H226): 31 µM
IC50 (SK-OV-3; [1]): 0.37 µM
CC50 (SK-OV-3; [2]): > 100 µM
TGI (SK-OV-3): >100 µM
IC50 (MDA-MB-231; [1]): 0.64 µM
CC50 (MDA-MB-231; [2]): > 100 µM
TGI (MDA-MB-231): 6 µM
TGI (HCC2998): 5.3 µM
IC50 (HCC2998; Homo sapiens, HCC 2998, read-out: GL50 (the source's name)): 1.1 µM
CC50 (HCC2998; Homo sapiens, HCC 2998, read-out: LC50 (the source's name)): > 100 µM
IC50 (NCI-H460; [1]): 0.41 µM
CC50 (NCI-H460; [2]): > 100 µM
TGI (NCI-H460): >100 µM
IC50 (MKN1; Homo sapiens, MKN-1, read-out: GL50 (the source's name)): 0.4 µM
CC50 (MKN1; Homo sapiens, MKN-1, read-out: LC50 (the source's name)): > 100 µM
TGI (MKN1): 21 µM
TGI (DMS273): >100 µM
IC50 (DMS273; Homo sapiens, DMS-273, read-out: GL50 (the source's name)): 0.29 µM
CC50 (DMS273; Homo sapiens, DMS-273, read-out: LC50 (the source's name)): > 100 µM
TGI (DMS114): 2.4 µM
IC50 (DMS114; Homo sapiens, DMS-114, read-out: GL50 (the source's name)): 0.33 µM
CC50 (DMS114; Homo sapiens, DMS-114, read-out: LC50 (the source's name)): > 100 µM
TGI (HCT-116): >100 µM
IC50 (HCT-116; [1]): 0.48 µM
CC50 (HCT-116; [2]): > 100 µM
IC50 (NCI-H23; [1]): 0.91 µM
CC50 (NCI-H23; [2]): > 100 µM
TGI (NCI-H23): 92 µM
IC50 (SNB-75; [1]): 0.37 µM
CC50 (SNB-75; [2]): > 100 µM
TGI (SNB-75): >100 µM
